Literature values in US6623775B2, “Treating or preventing illness growth of Clostridium difficile” (S.S. Steiner, Inc., priority 1997, dated 2003).

Conditions: degree of ionization taken into account

Structure (SMILES): CC(C)=CCC(=O)[C@@]1(O)C(O)=C(C(=O)CC(C)C)C(=O)[C@H]1CC=C(C)C (relative stereo) [trans-isohumulone]
- Antibacterial activity relative to colupulone: 11 times
- Antibacterial activity relative to humulone: about 20 times
- Antibacterial activity relative to trans-humulinic acid: nine
